A short description of assay [1]: Growth inhibition of human SW1573 cells at 1:10 molar ratio of compound in presence of N-{(1S)-2-amino-1-[(3-fluorophenyl)methyl]ethyl}-5-chloro-4-(4-chloro-1-methyl-1H-pyrazol-5-yl)-2-thiophenecar- boxamide incubated for 72 hrs by Cell-titer-Glo reagent based assay. The format is functional. The note with it: SW1573, 72 h.
A short description of assay [2]: Growth inhibition of human COLO205 cells assessed combination index at 1:10 molar ratio of compound in presence of N-{(1S)-2-amino-1-[(3-fluorophenyl)methyl]ethyl}-5-chloro-4-(4-chloro-1-methyl-1H-pyrazol-5-yl)-2-thiophenecar- boxamide incubated for 72 hrs by Cell-titer-Glo reagent based assay. The format is functional, COLO 205.
Assay [3] is described as follows: Growth inhibition of human SW1463 cells at 1:10 molar ratio of compound in presence of N-{(1S)-2-amino-1-[(3-fluorophenyl)methyl]ethyl}-5-chloro-4-(4-chloro-1-methyl-1H-pyrazol-5-yl)-2-thiophenecar- boxamide incubated for 72 hrs by Cell-titer-Glo reagent based assay. The format is functional. As to conditions: SW1463, 72 h.
Assay [4] can be described thus: Growth inhibition of human EFM19 cells at 1:10 molar ratio of compound in presence of N-{(1S)-2-amino-1-[(3-fluorophenyl)methyl]ethyl}-5-chloro-4-(4-chloro-1-methyl-1H-pyrazol-5-yl)-2-thiophenecar- boxamide incubated for 72 hrs by Cell-titer-Glo reagent based assay. The format is functional. As to conditions: EFM-19, 72 h.
The nature of assay [5]: Growth inhibition of human HCC827 cells at 1:10 molar ratio of compound in presence of N-{(1S)-2-amino-1-[(3-fluorophenyl)methyl]ethyl}-5-chloro-4-(4-chloro-1-methyl-1H-pyrazol-5-yl)-2-thiophenecar- boxamide incubated for 72 hrs by Cell-titer-Glo reagent based assay. As to conditions: HCC827, 72 h. The format is functional.
Assay [6] can be described thus: Growth inhibition of human DLD1 cells at 1:10 molar ratio of compound in presence of N-{(1S)-2-amino-1-[(3-fluorophenyl)methyl]ethyl}-5-chloro-4-(4-chloro-1-methyl-1H-pyrazol-5-yl)-2-thiophenecar- boxamide incubated for 72 hrs by Cell-titer-Glo reagent based assay. The format is functional. As to conditions: DLD-1, 72 h.
Assay [7] can be described thus: Growth inhibition of human HCT8 cells assessed combination index at 1:10 molar ratio of compound in presence of N-{(1S)-2-amino-1-[(3-fluorophenyl)methyl]ethyl}-5-chloro-4-(4-chloro-1-methyl-1H-pyrazol-5-yl)-2-thiophenecar- boxamide incubated for 72 hrs by Cell-titer-Glo reagent based assay. The format is functional, HCT-8.
Assay [8] can be described thus: Growth inhibition of human NCI-H727 cells at 1:10 molar ratio of compound in presence of N-{(1S)-2-amino-1-[(3-fluorophenyl)methyl]ethyl}-5-chloro-4-(4-chloro-1-methyl-1H-pyrazol-5-yl)-2-thiophenecar- boxamide incubated for 72 hrs by Cell-titer-Glo reagent based assay. The format is functional. The note with it: NCI-H727, 72 h.
Assay [9] is described as follows: Growth inhibition of human HT-29 cells assessed combination index at 1:10 molar ratio of compound in presence of N-{(1S)-2-amino-1-[(3-fluorophenyl)methyl]ethyl}-5-chloro-4-(4-chloro-1-methyl-1H-pyrazol-5-yl)-2-thiophenecar- boxamide incubated for 72 hrs by Cell-titer-Glo reagent based assay. The format is functional.
Assay [10] can be described thus: Growth inhibition of human COR-L23 cells assessed combination index at 1:10 molar ratio of compound in presence of N-{(1S)-2-amino-1-[(3-fluorophenyl)methyl]ethyl}-5-chloro-4-(4-chloro-1-methyl-1H-pyrazol-5-yl)-2-thiophenecar- boxamide incubated for 72 hrs by Cell-titer-Glo reagent based assay. The format is functional.
Assay [11] is described as follows: Growth inhibition of human NCI-H23 cells assessed combination index at 1:10 molar ratio of compound in presence of N-{3-[3-cyclopropyl-5-(2-fluoro-4-iodo-phenylamino)-6,8-dimethyl- 2,4,7-trioxo-3,4,6,7-tetrahydro-2H-pyrido[4,3-d]pyrimidin-1-yl]phenyl}acetamide incubated for 72 hrs by Cell-titer-Glo reagent based assay. The format is functional.
A short description of assay [12]: Growth inhibition of human SW1463 cells assessed combination index at 1:10 molar ratio of compound in presence of N-{3-[3-cyclopropyl-5-(2-fluoro-4-iodo-phenylamino)-6,8-dimethyl- 2,4,7-trioxo-3,4,6,7-tetrahydro-2H-pyrido[4,3-d]pyrimidin-1-yl]phenyl}acetamide incubated for 72 hrs by Cell-titer-Glo reagent based assay. The format is functional.
Assay [13] in a line: Growth inhibition of human Calu6 cells at 1:10 molar ratio of compound in presence of N-{3-[3-cyclopropyl-5-(2-fluoro-4-iodo-phenylamino)-6,8-dimethyl- 2,4,7-trioxo-3,4,6,7-tetrahydro-2H-pyrido[4,3-d]pyrimidin-1-yl]phenyl}acetamide incubated for 72 hrs by Cell-titer-Glo reagent based assay. As to conditions: Calu-6, 72 h. The format is functional.
A short description of assay [14]: Growth inhibition of human NCI-H1355 cells at 1:10 molar ratio of compound in presence of N-{3-[3-cyclopropyl-5-(2-fluoro-4-iodo-phenylamino)-6,8-dimethyl- 2,4,7-trioxo-3,4,6,7-tetrahydro-2H-pyrido[4,3-d]pyrimidin-1-yl]phenyl}acetamide incubated for 72 hrs by Cell-titer-Glo reagent based assay. The format is functional. As to conditions: NCI-H1355, 72 h.
Assay [15] in a line: Growth inhibition of human Calu3 cells at 1:10 molar ratio of compound in presence of N-{3-[3-cyclopropyl-5-(2-fluoro-4-iodo-phenylamino)-6,8-dimethyl- 2,4,7-trioxo-3,4,6,7-tetrahydro-2H-pyrido[4,3-d]pyrimidin-1-yl]phenyl}acetamide incubated for 72 hrs by Cell-titer-Glo reagent based assay. The format is functional. As to conditions: Calu-3, 72 h.

Each structure is given as a SMILES string.

Regarding `CC(=O)Nc1cccc(-n2c(=O)n(C3CC3)c(=O)c3c(Nc4ccc(I)cc4F)n(C)c(=O)c(C)c32)c1` [TRAMETINIB], the half-maximal inhibitory concentration (IC50) was 38 nM in assay [1]; 4 nM in assay [3]; 30 nM in [4]; 40 nM in assay [5]; 93 nM in assay [6]; 2 nM in assay [8]. Further, the CI was 0.88 in assay [2], 0.39 in assay [7], 0.95 in assay [9] and 0.17 in assay [10].

Regarding `Cn1ncc(Cl)c1-c1cc(C(=O)N[C@H](CN)Cc2cccc(F)c2)sc1Cl` [AFURESERTIB], the CI in assay [11] worked out at 0.76; in [12] it was 0.94. The 50% inhibitory concentration (IC50) in assay [13] was found to be 31 nM; in assay [14], 268 nM; in assay [15], 392 nM.

What is called IC50 is the concentration that inhibits the measured activity by half.

The values are drawn from ChEMBL document CHEMBL3880386, “Combination comprising the MEK inhibitor N-{3-[3-cyclopropyl-5-(2-fluoro-4-iodo- phenylamino)-6,8-dimethyl-2,4,7-trioxo-3,4,6,7-tetrahydro-2H-pyrido[4,3-d]pyrimidin-1-yl]phenyl}acetamide and the Akt inhibitor N-{(1S)-2-amino-1-[(3-fluorophenyl)methyl]ethyl}-5-chloro-4-(4-chloro-1- …” (2014).
